The text below walks through data of patent US5523315A, “N-(hydroxyethyl)butanediamide derivatives” (Bio-Mega/Boehringer Ingelheim Research Inc., priority 1993, dated 1996).

The IC50 is the point on the concentration scale where inhibition reaches its midpoint. A lower IC50 goes with higher potency.

In this assay the target is T1, human renin (Homo sapiens, UniProt P00797).
T1 construct: A human plasma pool is used as the source of both the substrate (angiotensinogen) and the enzyme (renin); from tissue; host or cells: pooled human plasma
T1 sequence (P00797 67-406): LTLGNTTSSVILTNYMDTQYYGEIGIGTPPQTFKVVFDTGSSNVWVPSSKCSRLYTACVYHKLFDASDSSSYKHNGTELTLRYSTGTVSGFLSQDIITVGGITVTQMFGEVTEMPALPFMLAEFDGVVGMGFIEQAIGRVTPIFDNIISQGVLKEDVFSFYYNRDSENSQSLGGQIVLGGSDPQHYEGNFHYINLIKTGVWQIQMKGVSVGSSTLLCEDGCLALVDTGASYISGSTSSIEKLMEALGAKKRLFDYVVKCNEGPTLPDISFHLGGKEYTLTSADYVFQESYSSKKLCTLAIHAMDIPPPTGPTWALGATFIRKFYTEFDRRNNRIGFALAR
The assay is described as follows: plasma renin assay (inhibition of human renin; angiotensin I generated, measured by radioimmunoassay). The assay is classed as biochemical. The conditions noted are these: human plasma pool, pH 6.0, 2 h incubation at 37°. On the procedure:
The assay is performed as follows: The test compound (i.e. the inhibitor) is dissolved in dimethylsulfoxide (1 mM stock solution) and diluted with an aqueous buffer solution of 270 mM 2-(N-morpholino)ethanesulfonic acid and 1% human serum albumin (pH 5.85, also containing dimercaprol and 8-hydroxyquinoline sulfate in accordance with the instructions of the RIA kit noted below) to give an assay mixture in which the final dimethylsulfoxide content is 1% (v/v).
A human plasma pool is used as the source of both the substrate (angiotensinogen) and the enzyme (renin). The reaction is initiated by the addition of 50 μL of human plasma pool to 50 μL of various concentrations of inhibitor in the 1% dimethylsulfoxide assay buffer. The plasma renin activity is measured by the amount of angiotensin I generated at pH 6.0 following a 2 h incubation at 37°.
Quantitation of angiotensin I is performed by radioimmunoassay (RIA kit from New England Nuclear-Dupont, Mississauga, ON, Canada). The enzymatic activity of renin is expressed in ng of angiotensin I generated (/mL/2 h). The extent of inhibition of the reaction is determined from the amount of angiotensin I generated in reference to a control prepared without inhibitor. Nonlinear regression analysis is used to calculate the IC50 values, i.e. the molar concentration of the test compound required to cause a 50% inhibition of the enzyme activity.
For `CC(C)C[C@H](O)[C@H](O)[C@H](CC1CCCCC1)NC(=O)[C@@H](CC(=O)N(CCO)CC1(O)CCCCC1)Cc1cscn1` [Compound 37, N^4-[(1-hydroxycyclohexyl)methyl]-N^4-(2-hydroxyethyl)-N^1-[1(S)-(cyclohexylmethyl)-2(R),3(S)-dihydroxy-5-methylhexyl]-2(R)-(4-thiazolylmethyl)butanediamide], the IC50 came out at 0.016 µM. The figure for `CN(C)C(=O)CN(CC1(O)CCCCC1)C(=O)C[C@@H](CC1CC1)C(=O)N[C@@H](CC1CCCCC1)[C@@H](O)[C@@H]1CC(C)(C)N(C)C1=O` [Compound 38, N^4-[(1-hydroxycyclohexyl)methyl]-N^4-[2-(dimethylamino)-2-oxoethyl]-N^1-[1(S)-(cyclohexylmethyl)-2(S)-hydroxy-2-(1,5,5-trimethyl-2-oxopyrrolidin-3(S)-yl)ethyl]-2(R)-(cyclopropylmethyl)butanediamide] is 0.015 µM. The result for `CC(C)C[C@H](O)[C@H](O)[C@H](CC1CCCCC1)NC(=O)[C@@H](CC(=O)N(CC1CCCCC1)CC(C)(C)O)Cc1csc(N)n1` [Compound 41, N^4-(cyclohexylmethyl)-N^4-(2-hydroxy-2-methylpropyl)-N^1-[1(S)-(cyclohexylmethyl)-2(R),3(S)-dihydroxy-5-methylhexyl]-2(R)-[(2-amino-4-thiazolyl)methyl]butanediamide] reads 0.009 µM; that for `CC(C)C[C@H](O)[C@H](O)[C@H](CC1CCCCC1)NC(=O)[C@@H](CC(=O)N(CC1CCCCC1)CC(C)(C)O)Cc1c[nH]cn1` [Compound 43, N^4-(cyclohexylmethyl)-N^4-(2-hydroxy-2-methylpropyl)-N^1-[1(S)-(cyclohexylmethyl)-2(R),3(S)-dihydroxy-5-methylhexyl]-2(R)-(1H-imidazol-4-ylmethyl)butanediamide], 0.014 µM. Consider `CC(C)C[C@H](O)[C@H](O)[C@H](CC1CCCCC1)NC(=O)[C@@H](CC(=O)N[C@@H](CO)CC1CCCCC1)Cc1cscn1` [Compound 45], for which half-maximal inhibition (IC50) required 0.037 µM. The figure for `CC(C)C[C@H](O)[C@H](O)[C@H](CC1CCCCC1)NC(=O)[C@@H](CC(=O)N(CC(=O)N(C)C)CC1(O)CCCCC1)Cc1csc(N)n1` [Compound 46, N^4-[2-(dimethylamino)-2-oxoethyl]-N^4-[(1-hydroxycyclohexyl)methyl]-N^1-[1(S)-(cyclohexylmethyl)-2(R),3(S)-dihydroxy-5-methylhexyl]-2(R)-[(2-amino-4-thiazolyl)methyl]butanediamide] is 0.0013 µM; for `CC(C)C[C@H](O)[C@H](O)[C@H](CC1CCCCC1)NC(=O)[C@@H](CC(=O)N(CC1CCCC1)CC(C)(C)O)Cc1csc(N)n1` [Compound 47, N^4-(cyclopentylmethyl)-N^4-(2-hydroxy-2-methylpropyl)-N^1-[1(S)-(cyclohexylmethyl)-2(R),3(S)-dihydroxy-5-methylhexyl]-2(R)-[(2-amino-4-thiazolyl)methyl]butanediamide] it is 0.007 µM; for `CC(C)C[C@H](O)[C@H](O)[C@H](CC1CCCCC1)NC(=O)[C@@H](CC(=O)N(CC1CCCCCC1)CC(C)(C)O)Cc1csc(N)n1` [Compound 48, N^4-(cycloheptylmethyl)-N^4-(2-hydroxy-2-methylpropyl)-N^1-[1(S)-(cyclohexylmethyl)-2(R),3(S)-dihydroxy-5-methylhexyl]-2(R)-[(2-amino-4-thiazolyl)methyl]butanediamide] it is 0.005 µM. The result for `CC(C)C[C@H](O)[C@H](O)[C@H](CC1CCCCC1)NC(=O)[C@@H](CC(=O)N(CC(=O)N(C)CCc1ccccn1)CC1(O)CCCCC1)Cc1csc(N)n1` [Compound 49, N^4-[(1-hydroxycyclohexyl)methyl]-N^4 -{2-{methyl[2-(2-pyridinyl)ethyl]amino}-2-oxoethyl}-N^1-[1(S)-(cyclohexylmethyl)-2(R),3(S)-dihydroxy-5-methylhexyl]-2(R)-[(2-amino-4-thiazolyl)methyl]butanediamide] reads 0.002 µM; that for `CC(C)C[C@H](O)[C@H](O)[C@H](CC1CCCCC1)NC(=O)[C@@H](CC(=O)N(CC1CCCC1)CC(C)(C)O)Cc1cscn1` [Compound 50, N^4-(cyclopentylmethyl)-N^4-(2-hydroxy-2-methylpropyl)-N^1-[1(S)-(cyclohexylmethyl)-2(R),3(S)-dihydroxy-5-methylhexyl]-2(R)-(4-thiazolylmethyl)butanediamide], 0.013 µM. The result for `CC(C)C[C@H](O)[C@H](O)[C@H](CC1CCCCC1)NC(=O)[C@@H](CC(=O)N(CC1CCCCCC1)CC(C)(C)O)Cc1cscn1` [Compound 51, N^4-(cycloheptylmethyl)-N^4-(2-hydroxy-2-methylpropyl)-N^1-[1(S)-(cyclohexylmethyl)-2(R),3(S)-dihydroxy-5-methylhexyl]-2(R)-(4-thiazolylmethyl)butanediamide] reads 0.005 µM. As for `CC(C)C[C@H](O)[C@H](O)[C@H](CC1CCCCC1)NC(=O)[C@@H](CC(=O)N(CC(=O)N(C)C)CC1(O)CCCCC1)Cc1cccnc1` [Compound 52, N^4-[(1-hydroxycyclohexyl)methyl]-N^4-[2-(dimethylamino)-2-oxoethyl]-N^1-[1(S)-(cyclohexylmethyl)-2(R),3(S)-dihydroxy-5-methylhexyl]-2(R)-(3-pyridinylmethyl)butanediamide], the IC50 stood at 0.033 µM. For `CC(C)C[C@H](O)[C@H](O)[C@H](CC1CCCCC1)NC(=O)[C@@H](CC(=O)N(CC(=O)N(C)C)CC1(O)CCCCCC1)Cc1csc(N)n1` [Compound 53, N^4-[(1-hydroxycycloheptyl)methyl]-N^4-[2-(dimethylamino)-2-oxoethyl]-N^1-[1(S)-(cyclohexylmethyl)-2(R),3(S)-dihydroxy-5-methylhexyl]-2(R)-[(2-amino-4-thiazolyl)methyl]-butanediamide], the IC50 came out at 0.002 µM. The result for `CC(C)C[C@H](O)[C@H](O)[C@H](CC1CCCCC1)NC(=O)[C@@H](CC(=O)N(Cc1ccccc1)CC(C)(C)O)Cc1csc(N)n1` [Compound 54, N^4-benzyl-N^4-(2-hydroxy-2-methylpropyl)-N^1-[1(S)-(cyclohexylmethyl)-2(R),3(S)-dihydroxy-5-methylhexyl]-2(R)-[(2-amino-4-thiazolyl)methyl]-butanediamide] reads 0.026 µM; that for `CC(C)C[C@H](O)[C@H](O)[C@H](CC1CCCCC1)NC(=O)[C@@H](CC(=O)N(Cc1ccco1)CC(C)(C)O)Cc1csc(N)n1` [Compound 55, N^4-(2-furanylmethyl)-N^4-(2-hydroxy-2-methylpropyl)-N^1-[1(S)-(cyclohexylmethyl)-2(R),3(S)-dihydroxy-5-methylhexyl]-2(R)-[(2-amino-4-thiazolyl)methyl]butanediamide], 0.021 µM. The figure for `CC(C)C[C@H](O)[C@H](O)[C@H](CC1CCCCC1)NC(=O)[C@@H](CC(=O)N(CC(=O)N(C)C)CC1(O)CCCCCCC1)Cc1csc(N)n1` [Compound 56, N^4-[(1-hydroxycyclooctyl)methyl]-N^4-[2-(dimethylamino)-2-oxoethyl]-N^1-[1(S)-(cyclohexylmethyl)-2(R),3(S)-dihydroxy-5-methylhexyl]-2(R)-[(2-amino-4-thiazolyl)methyl]butanediamide] is 0.001 µM; for `Cc1ccccc1CN(CC(C)(C)O)C(=O)C[C@@H](Cc1csc(N)n1)C(=O)N[C@@H](CC1CCCCC1)[C@@H](O)[C@@H](O)CC(C)C` [Compound 57, N^4-[(2-methylphenyl)methyl]-N^4-(2-hydroxy-2-methylpropyl)-N^1-[1(S)-(cyclohexylmethyl)-2(R),3(S)-dihydroxy-5-methylhexyl]-2(R)-[(2-amino-4-thiazolyl)methyl]butanediamide] it is 0.037 µM; for `CCC(CC)CN(CC(C)(C)O)C(=O)C[C@@H](Cc1csc(N)n1)C(=O)N[C@@H](CC1CCCCC1)[C@@H](O)[C@@H](O)CC(C)C` [Compound 58, N^4-(2-ethylbutyl)-N^4-(2-hydroxy-2-methylpropyl)-N^1-[1(S)-(cyclohexylmethyl)-2(R),3(S)-dihydroxy-5-methylhexyl]-2(R)-[(2-amino-4-thiazolyl)methyl]butanediamide] it is 0.015 µM. The figure for `CC(C)C[C@H](O)[C@H](O)[C@H](CC1CCCCC1)NC(=O)[C@@H](CC(=O)N(CC(=O)N(C)CCc1ccccn1)CC1(O)CCCCCC1)Cc1csc(N)n1` [Compound 59, N^4-[(1-hydroxycycloheptyl)methyl]-N^4 -{2-{methyl[2-(2-pyridinyl)ethyl]amino}-2-oxoethyl}-N^1-[1(S)-(cyclohexylmethyl)-2(R),3(S)-dihydroxy-5-methylhexyl]-2(R)-[(2-amino-4-thiazolyl)methyl]butanediamide] is 0.0015 µM.
